Results as given in patent US5356790A, “Highly sensitive assay method for myo-inositol, composition for practicing same, novel myo-inositol dehydrogenase, and process for producing same” (Asahi Kasei Kogyo Kabushiki Kaisha, priority 1990, dated 1994).
Where “and” joins values, the source holds several entries; their conditions need not be identical. Identical values can stand only once. Like-named read-outs stand apart in the source and are kept apart here.

Key:
[1] = tested on: myo-inositol dehydrogenase; experiment: Substrate specificity of myo-inositol dehydrogenase; type: biochemical, Bacillus sp. No. 3; conditions: myo-inositol = 100%
Description: 1. Substrate specificity:
The above reaction mixture (1 ml) is incubated in a small test tube at 37° C. for 5 mins. Diluted enzyme solution (0.02 ml) is added and the mixture is stirred to initiate the reaction. After exactly 10 mins., 0.1N HCl (2.0 ml) was added and the mixture is stirred to stop the reaction. Absorption at 550 nm (A550 nm) is measured to obtain absorption A1. The assay was repeated using the above reaction mixture except that myo-inositol was not included. The mixture is also treated in the same manner as described above and its absorption Ao was measured.
(3) Calculation of enzyme activity: [formula] wherein

[2] = tested on: myo-inositol dehydrogenase; conditions: enzyme produced by yeast Cryptococcus melibiosum, cited from earlier work
[3] = tested on: myo-inositol dehydrogenase; experiment: Km-value measurement for substrate and coenzymes; type: biochemical, Bacillus sp. No. 3
Description: Km-value for myo-inositol is measured at various concentrations of myo-inositol in a reaction mixture of:
Further in the reaction mixture, 1 mM NAD is replaced by 1 mM thio-NAD (Sigma Co. ) and the Km-value for myo-inositol is measured. The result is Km-value: 10.0 mM (myo-inositol).
Km-value in the reaction of NADP and myo-inositol are measured. The results are as follows:
Km-values in the reaction of the thio-NADP and myo-inositol are as follows: […]

[4] = tested on: myo-inositol dehydrogenase; experiment: Relative activity with coenzyme thio-NAD compared to NAD; type: biochemical, Bacillus sp. No. 3

Q: Which “Substrate specificity (relative activity)” value [1] does the source give for `OC[C@H]1O[C@@H](O[C@H]2[C@H](O)[C@@H](O)C(O)O[C@@H]2CO)[C@H](O)[C@@H](O)[C@H]1O` (stereo partly drawn) [lactose] here?
A: 0%

Q: Which “Substrate specificity (relative activity)” value [1] does the source give for `OC[C@H]1O[C@H](O[C@H]2[C@H](O)[C@@H](O)[C@H](O)O[C@@H]2CO)[C@H](O)[C@@H](O)[C@@H]1O` [maltose] here?
A: 0%

Q: For `NC(=O)c1ccc[n+]([C@@H]2O[C@H](COP(=O)([O-])OP(=O)(O)OC[C@H]3O[C@@H](n4cnc5c(N)ncnc54)[C@H](O)[C@@H]3O)[C@@H](O)[C@H]2O)c1` [NAD, nicotinamide adenine dinucleotide], which Km ([2]; read-out: Km value for NAD) is on record?
A: ~0.07 mM

Q: For `NC(=O)c1ccc[n+]([C@@H]2O[C@H](COP(=O)([O-])OP(=O)(O)OC[C@H]3O[C@@H](n4cnc5c(N)ncnc54)[C@H](OP(=O)(O)O)[C@@H]3O)[C@@H](O)[C@H]2O)c1` [NADP, nicotinamide adenine dinucleotide phosphate], which Km ([3]; reaction of NADP and myo-inositol, read-out: Km-value (NADP)) is on record?
A: 190 µM

Q: Which Km ([3]; reaction of thio-NADP and myo-inositol, read-out: Km-value (thio-NADP)) does the source give for `NC(=S)c1ccc[n+]([C@@H]2O[C@H](COP(=O)([O-])OP(=O)(O)OC[C@H]3O[C@@H](n4cnc5c(N)ncnc54)[C@H](OP(=O)(O)O)[C@@H]3O)[C@@H](O)[C@H]2O)c1` [thio-NADP, thionicotinamide adenine dinucleotide phosphate] here?
A: 2540 µM

Q: With `O[C@H]1[C@H](O)[C@@H](O)[C@H](O)[C@@H](O)[C@H]1O` [myo-inositol] as the molecule, how does the “Substrate specificity (relative activity)” value [1] read?
A: 100%

Q: What about the Km ([3]; coenzyme 1 mM NAD, Tris-HCl buffer pH 8.5, read-out: Km-value (myo-inositol)) of the same molecule?
A: 640 µM and ~600 µM

Q: And the Km ([3]; coenzyme 1 mM thio-NAD, read-out: Km-value (myo-inositol))?
A: 10000 µM

Q: What about the Km ([3]; reaction of NADP and myo-inositol, read-out: Km-value (myo-inositol)) of the same molecule?
A: 30900 µM

Q: What about the Km ([2]; read-out: Km value for myo-inositol) of the same molecule?
A: ~11 mM

Q: Which “Substrate specificity (relative activity)” value [1] does the source give for mannose here?
A: 0%

Q: With glucose as the molecule, how does the “Substrate specificity (relative activity)” value [1] read?
A: 0%

Q: Which “Substrate specificity (relative activity)” value [1] does the source give for galactose here?
A: 0%

Q: For `O=C(CO)[C@@H](O)[C@H](O)[C@H](O)CO` [fructose], which “Substrate specificity (relative activity)” value [1] is on record?
A: 0%

Q: With `NC(=S)c1ccc[n+]([C@@H]2O[C@H](COP(=O)([O-])OP(=O)(O)OC[C@H]3O[C@@H](n4cnc5c(N)ncnc54)[C@H](O)[C@@H]3O)[C@@H](O)[C@H]2O)c1` [thio-NAD, thionicotinamide adenine dinucleotide] as the molecule, how does the Km ([3]; 150 mM myo-inositol, read-out: Km-value (thio-NAD)) read?
A: 170 µM

Q: What about the “Relative activity when coenzyme thio-NAD is used, as compared to NAD” value [4] of the same molecule?
A: 10-15%

Q: For `OC[C@H]1O[C@@](CO)(O[C@H]2O[C@H](CO)[C@@H](O)[C@H](O)[C@H]2O)[C@@H](O)[C@@H]1O` [saccharose], which “Substrate specificity (relative activity)” value [1] is on record?
A: 0%

Q: With `OC[C@@H](O)[C@@H](O)[C@H](O)[C@@H](O)CO` [sorbitol] as the molecule, how does the “Substrate specificity (relative activity)” value [1] read?
A: 0%
